In one data set the target is KRAS G12C (Homo sapiens, UniProt P01116, G12C). Kind of data set: GDP-GTP exchange assay (KRAS_G12C exchange assay). It counts as biochemical. The note with it: bodipy-loaded KRAS G12C 2.5 nM, SOS1 150 nM, 2 hours pre-incubation with inhibitor; read-out: G12C_exchange. On the procedure: The inhibitor potency of the exemplified compounds was determined in a fluorescence based guanine nucleotide exchange assay, which measures the exchange of bodipy-GDP (fluorescently labeled GDP) for GppNHp (Non-hydrolyzable GTP analog) to generate the active state of KRAS in the presence of SOS1 (guanine nucleotide exchange factor). Inhibitors were serially diluted in DMSO and a volume of 0.1 μL was transferred to the wells of a black low volume 384-well plate. 5 μL/well volume of bodipy-loaded KRAS G12C diluted to 5 nM in assay buffer (25 mM Hepes pH 7.5, 50 mM NaCl, 10 mM MgCl2 and 0.01% Brij-35) was added to the plate and pre-incubated with inhibitor for 2 hours at ambient temperature. Appropriate controls (enzyme with no inhibitor or with a G12C inhibitor (AMG-510)) were included on the plate. The exchange was initiated by the addition of a 5 μL/well volume containing 1 mM GppNHp and 300 nM SOS1 in assay buffer. The 10 μL/well reaction concentration of the bodipy-loaded KRAS G12C, GppNHp, and SOS1 were 2.5 nM, 500 uM, and 150 nM, respectively. The reaction plates were incubated at ambient temperature for 2 hours, a time estimated for complete GDP-GTP exchange in the absence of inhibitor. For the KRAS G12D and G12V mutants, similar guanine nucleotide exchange assays were used with 2.5 nM as final concentration for the bodipy loaded KRAS proteins and with 4 hours and 3 hours incubation after adding GppNHp-SOS1 mixture for G12D and G12V respectively. A cyclic peptide described to selectively bind G12D mutant (Sakamoto et al., BBRC 484.3 (2017), 605-611) or internal compounds with confirmed binding were used as positive controls in the assay plates. Fluorescence intensities were measured on a PheraStar plate reader instrument (BMG Labtech) with excitation at 485 nm and emission at 520 nm.
Either GraphPad prism or Genedata Screener SmartFit was used to analyze the data. The IC50 values were derived by fitting the data to a four parameter logistic equation producing a sigmoidal dose-response curve with a variable Hill coefficient.

Another data set has as its system KRAS_G12C pERK. As to the kind of experiment: Cellular pERK HTRF assay (KRAS_G12C pERK assay). It counts as cell-based, human. The conditions noted are these: KRAS G12C cells, 4 hours incubation with compound, read-out: G12C_pERK. On the procedure:
MIA PaCa-2 (KRAS G12C; ATCC® CRL-1420), NCI-H358 (KRAS G12C; ATCC® CRL-5807), A427 (KRAS G12D; ATCC® HTB53), HPAFII (KRAS G12D; ATCC® CRL-1997), YAPC (KRAS G12V; DSMZ ACC382), SW480 (KRAS G12V; ATCC® CRL-228) and NCI-H838 (KRAS WT; ATCC® CRL-5844) cells are purchased from ATCC and maintained in RPMI 1640 media supplemented with 10% FBS (Gibco/Life Technologies). The cells are plated at 5000 cells per well (8 uL) into Greiner 384-well low volume, flat-bottom, and tissue culture treated white plates and incubated overnight at […], 5% CO2. The next morning, test compound stock solutions are diluted in media at 3× the final concentration and 4 uL are added to the cells, with a final concentration of 0.1% of DMSO. The cells are incubated with the test compounds for 4 hours (G12C and G12V) or 2 hrs (G12D) at 37° C., 5% CO2. Four uL of 4× lysis buffer with blocking reagent (Cisbio) are added to each well and plates are rotated gently (300 rpm) for 30 minutes at room temperature. Four uL per well of Cisbio anti Phospho-ERK 1/2 d2 is mixed with anti Phospho-ERK 1/2 Cryptate (1:1), and added to each well, incubated overnight in the dark at room temperature. Plates are read on the Pherastar plate reader at 665 nm and 620 nm wavelengths. Data are analyzed in Genedata Screener using SmartFit for IC50 values.
(In general: TR-FRET usually uses a lanthanide donor and a delayed reading to cut background.)

The test system of data set [1] is KRAS_G12C pERK in MIA PaCa-2 cells. Kind of data set: Whole Blood pERK1/2 HTRF assay (KRAS_G12C WB pERK assay). The conditions noted are these: Homo sapiens, compound in whole blood, 4 hours, read-out: G12C_WB_pERK. It counts as cell-based, human. On the procedure: MIA PaCa-2 cells (KRAS G12C; ATCC® CRL-1420), HPAF-II (KRAS G12D; ATCC® CRL-1997) and YAPC (KRAS G12V; DSMZ ACC382) are maintained in RPMI 1640 with 10% FBS (Gibco/Life Technologies). For MIA PaCa-2 assay, cells are seeded into 96 well tissue culture plates (Corning #3596) at 25000 cells per well in 100 uL media and cultured for 2 days at 37° C., 5% CO2 before the assay. For HPAF-II and YAPC assay, cells are seeded in 96 well tissue culture plates at 50000 cells per well in 100 uL media and cultured for 1 day before the assay. Whole Blood are added to the 1 uL dots of compounds (prepared in DMSO) in 96 well plates and mixed gently by pipetting up and down so that the concentration of the compound in blood is 1× of desired concentration, in 0.5% DMSO. The media is aspirated from the cells and 50 uL per well of whole blood with test compound is added and incubated for 4 hours for MIA PaCa and YAPC assay; or 2 hours for HPAF-II assay, respectively at 37° C., 5% CO2. After dumping the blood, the plates are gently washed twice by adding PBS to the side of the wells and dumping the PBS from the plate onto a paper towel, tapping the plate to drain well. Fifty ul/well of 1× lysis buffer #1 (Cisbio) with blocking reagent (Cisbio) and Benzonase nuclease (Sigma Cat #E1014-5KU, 1:10000 final concentration) is then added and incubated at room temperature for 30 minutes with shaking (250 rpm). Following lysis, 16 uL of lysate is transferred into 384-well Greiner small volume white plate using an Assist Plus (Integra Biosciences, NH). Four uL of 1:1 mixture of anti Phospho-ERK 1/2 d2 and anti Phospho-ERK 1/2 Cryptate (Cisbio) is added to the wells using the Assist Plus and incubated at room temperature overnight in the dark. Plates are read on the Pherastar plate reader at 665 nm and 620 nm wavelengths. Data are analyzed in Genedata Screener using SmartFit for IC50 values.

A short description of data set [2]: Human whole blood stability. In kind it is in vitro ADME. The conditions noted are these: percent remaining at 4 hr, 1 μM, 37° C. How it is done:
The whole blood stability of the exemplified compounds was determined by LC-MS/MS. The 96-Well Flexi-Tier™ Block (Analytical Sales & Services, Inc, Flanders, NJ) is used for the incubation plate containing 1.0 mL glass vials with 0.5 mL of blood per vial (pooled gender, human whole blood sourced from BIOIVT, Hicksville, NY or similar). Blood is pre-warmed in water bath to 37° C. for 30 minutes. 96-deep well analysis plate is prepared with the addition of 100 μL ultrapure water/well. 50 μL chilled ultrapure water/well is added to 96-deep well sample collection plate and covered with a sealing mat. 1 μL of 0.5 mM compound working solution (DMSO:water) is added to the blood in incubation plate to reach final concentrations of 1 μM, mixed by pipetting thoroughly and 50 μL is transferred 50 into the T=0 wells of the sample collection plate. Blood is allowed to sit in the water for 2 minutes and then 400 μL stop solution/well is added (acetonitrile containing an internal standard). The incubation plate is placed in the Incu-Shaker CO2 Mini incubator (Benchmark Scientific, Sayreville, NJ) at 37° C. with shaking at 150 rpm. At 1, 2 and 4-hr, the blood samples are mixed thoroughly by pipetting and 50 μL is transferred into the corresponding wells of the sample collection plate. Blood is allowed to sit in the water for 2 minutes and then 400 μL of stop solution/well is added. The collection plate is sealed and vortexed at 1700 rpm for 3 minutes (VX-2500 Multi-Tube Vortexer, VWR International, Radnor, PA), and samples are then centrifuged in the collection plate at 3500 rpm for 10 minutes (Allegra X-14R Centrifuge Beckman Coulter, Indianapolis, IN). 100 μL of supernatant/well is transferred from the sample collection plate into the corresponding wells of the analysis plate. The final plate is vortexed at 1700 rpm for 1 minute and analyze samples by LC-MS/MS. The peak area ratio of the 1, 2, and 4 hr samples relative to T=0 is used to determine the percent remaining. The natural log of the percent remaining versus time is used determine a slope to calculate the compounds half-life in blood (t1/2=0.693/slope).

The structures appear in SMILES notation. Read-outs that look alike come from different tables or passages of the source.

Sequence of KRAS G12C (P01116 1-188 isoform P01116-2 G12C): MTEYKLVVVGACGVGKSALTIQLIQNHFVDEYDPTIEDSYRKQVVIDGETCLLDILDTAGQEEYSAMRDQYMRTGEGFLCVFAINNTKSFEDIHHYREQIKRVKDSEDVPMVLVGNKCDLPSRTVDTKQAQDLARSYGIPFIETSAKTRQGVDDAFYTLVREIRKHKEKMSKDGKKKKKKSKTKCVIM

Regarding `CN(C)C1(C)CN(c2nc3c(F)c(-c4ccc(F)c5cccnc45)c(C(F)(F)F)cc3c3c2nnn3[C@H]2CCN(C(=O)/C=C/CF)[C@H](CC#N)C2)C1` (single isomer, unassigned) [Example 1a], the IC50 on KRAS G12C was no more than 50 nM; with KRAS_G12C pERK (Homo sapiens, 4 h), no more than 50 nM; in data set [1], no more than 50 nM. Besides, the “Human whole blood stability at 4 hr” value in data set [2] is “††† (WBS >90%)”.
In the case of `COc1c(C)cccc1-c1c(C(F)(F)F)cc2c(nc(N3CC(C)(N(C)C)C3)c3nnn([C@H]4CCN(C(=O)/C=C/CF)[C@H](CC#N)C4)c32)c1F` (single isomer, unassigned) [Example 2a], the IC50 at KRAS G12C is no more than 50 nM; with KRAS_G12C pERK (Homo sapiens, 4 h) it was no more than 50 nM; in data set [1], no more than 50 nM. In addition, in data set [2], the “Human whole blood stability at 4 hr” value is “†† (WBS >70% but ≤90%)”.
On to `COc1c(Cl)cccc1-c1c(C(F)(F)F)cc2c(nc(N3CC(C)(N(C)C)C3)c3nnn([C@H]4CCN(C(=O)/C=C/CF)[C@H](CC#N)C4)c32)c1F` (single isomer, unassigned) [Example 3a], for which the IC50 at KRAS G12C was no more than 50 nM; in the data set with KRAS_G12C pERK (Homo sapiens, 4 h), no more than 50 nM; in data set [1], 100 to 1000 nM. For the same compound, in data set [2], the “Human whole blood stability at 4 hr” value is “†† (WBS >70% but ≤90%)”.
Turning to `C[C@H](Oc1nc2c(F)c(-c3ccc(F)c4cccnc34)c(C(F)(F)F)cc2c2c1nnn2[C@H]1CCN(C(=O)/C=C/CF)[C@H](CC#N)C1)[C@@H]1CCCN1C` (single isomer, unassigned) [Example 4a], the IC50 was no more than 50 nM at KRAS G12C; no more than 50 nM in the data set with KRAS_G12C pERK (Homo sapiens, 4 h); no more than 50 nM in data set [1]. Also, the “Human whole blood stability at 4 hr” value in data set [2] is “††† (WBS >90%)”.
In the case of `C=CC(=O)N1CCC(n2nnc3c(O[C@@H](C)[C@@H]4CCCN4C)nc4c(F)c(-c5ccc(F)c6cccnc56)c(C(F)(F)F)cc4c32)CC1` (single isomer, unassigned) [Example 5a], the IC50 at KRAS G12C was no more than 50 nM; with KRAS_G12C pERK (Homo sapiens, 4 h), no more than 50 nM; in data set [1], 50 to 100 nM. For the same compound, in data set [2], the “Human whole blood stability at 4 hr” value is “†† (WBS >70% but ≤90%)”.
As to `C=CC(=O)N1CCC(n2nnc3c(O[C@@H](C)[C@@H]4CCCN4C)nc4c(F)c(-c5cccc6cccc(C#N)c56)c(C)cc4c32)CC1` (single isomer, unassigned) [Example 11b], the IC50 (on KRAS G12C; in the data set on KRAS_G12C pERK; in data set [1]) was no more than 50 nM in each case. In data set [2], the “Human whole blood stability at 4 hr” value is recorded as “†† (WBS >70% but ≤90%)”.
With `C=CC(=O)N1CC[C@H](n2nnc3c(O[C@@H](C)[C@@H]4CCCN4C)nc4c(F)c(-c5cccc6cccc(C#N)c56)c(C)cc4c32)C[C@H]1C` (single isomer, unassigned) [Example 14b], the IC50 on KRAS G12C is no more than 50 nM; in the data set on KRAS_G12C pERK (Homo sapiens, 4 h) it was no more than 50 nM; in data set [1], no more than 50 nM. Besides, the “Human whole blood stability at 4 hr” value in data set [2] is “††† (WBS >90%)”.
`C=C(F)C(=O)N1CC[C@H](n2nnc3c(N4CC(N(C)CC)C4)nc4c(F)c(-c5c(C)c(C)cc6[nH]ncc56)c(C)cc4c32)C[C@H]1CC#N` (single isomer, unassigned) [Example 15a]: the IC50 on KRAS G12C is no more than 50 nM; in the data set with KRAS_G12C pERK (Homo sapiens, 4 h), no more than 50 nM; in data set [1], 50 to 100 nM. In addition, the “Human whole blood stability at 4 hr” value in data set [2] was “††† (WBS >90%)”.
For `Cc1cc2c(nc(O[C@@H](C)[C@@H]3CCCN3C)c3nnn(C4CCN(C(=O)/C=C/CF)CC4)c32)c(F)c1-c1cccc2cccc(C#N)c12` (single isomer, unassigned) [Example 16b], the IC50 is no more than 50 nM at KRAS G12C, no more than 50 nM in the data set with KRAS_G12C pERK and 50 to 100 nM in data set [1]. In addition, the “Human whole blood stability at 4 hr” value in data set [2] is on record as “††† (WBS >90%)”.
For `COC/C=C/C(=O)N1CC[C@H](n2nnc3c(N4CC(C)(N(C)C)C4)nc4c(Cl)c(-c5ccc(F)c6cccnc56)c(Cl)cc4c32)C[C@H]1CC#N` (single isomer, unassigned) [Example 18a], the IC50 was no more than 50 nM at KRAS G12C; no more than 50 nM in the data set with KRAS_G12C pERK (Homo sapiens, 4 h); 100 to 1000 nM in data set [1]. Moreover, the “Human whole blood stability at 4 hr” value in data set [2] is reported as “††† (WBS >90%)”.
As for `COC/C=C/C(=O)N1CC[C@H](n2nnc3c(O[C@@H](C)[C@@H]4CCCN4C)nc4c(F)c(-c5c(F)cccc5OC)c(C)cc4c32)C[C@H]1CC#N` (single isomer, unassigned) [Example 34b], the IC50 (at KRAS G12C; in data set [1]) was no more than 50 nM each time. For the same compound, the “Human whole blood stability at 4 hr” value in data set [2] is given as “††† (WBS >90%)”.

The values above are taken from patent publication US12441727B2, “Tricyclic compounds as inhibitors of KRAS” (Incyte Corporation, priority 2021, dated 2025).
